For this experiment, the system named is Influenza A virus. Nature of the experiment: Antiviral activity against Influenza A virus (A/WSN/1933(H1N1)) infected in MDCK cells expressing neuraminidase H275Y mutant assessed as protection against virus-induced cytopathic effect after 48 hrs by CellTiter96 aqueous non-radioactive cell proliferation assay. The format is functional, organism-based. For orientation: Damage to the host cells serves as the signal in cytopathic effect assays.

For orientation: EC50 means the concentration at which the effect is half-maximal.

Consider `CCC(CC)O[C@@H]1C=C(C(=O)O)C[C@H](N/C(N)=N/C(=O)[C@@H](C)c2ccc3cc(OC)ccc3c2)[C@H]1NC(C)=O`, for which the EC50 worked out at 19 µM.

In the case of `CCCCCCCC(=O)/N=C(\N)N[C@H]1C=C(C(=O)O)O[C@@H]([C@H](O)[C@H](O)CO)[C@@H]1NC(C)=O`, the EC50 stood at 0.48 µM. Next, `COc1ccc2cc([C@H](C)C(=O)/N=C(\N)N[C@H]3C=C(C(=O)O)O[C@@H]([C@H](O)[C@H](O)CO)[C@@H]3NC(C)=O)ccc2c1`: 0.9 µM; `CCCCCCCC(=O)/N=C(\N)N[C@H]1CC(C(=O)O)=C[C@@H](OC(CC)CC)[C@@H]1NC(C)=O`: 6.6 µM; `CCC(CC)O[C@@H]1C=C(C(=O)O)C[C@H](NC(=N)N)[C@H]1NC(C)=O`: 2.1 µM. For `CCC(CC)O[C@@H]1C=C(C(=O)O)C[C@H](N)[C@H]1NC(C)=O` [OSELTAMIVIR CARBOXYLATE], the EC50 worked out at 26 µM. Regarding `CC(=O)N[C@H]1[C@H]([C@H](O)[C@H](O)CO)OC(C(=O)O)=C[C@@H]1NC(=N)N` [ZANAMIVIR], the EC50 was determined as 0.15 µM.
